Measured values reported in ChEMBL document CHEMBL3885881, “DrugMatrix”.

Species: Rattus norvegicus
Test: DrugMatrix - Regimen: Daily Repeat
Format: toxicity, organism-based, Sprague-Dawley
Set-up: regimen Daily Repeat, gender Male, age 6-8 weeks
Details: in vivo, iv, vehicle 100 % SALINE; for ABSOLUTE BASOPHIL / ABSOLUTE EOSINOPHIL / ABSOLUTE LYMPHOCYTE / ABSOLUTE MONOCYTE / ABSOLUTE SEGMENTED NEUTROPHIL / BASOPHIL / EOSINOPHIL / ERYTHROCYTE COUNT / HEMATOCRIT / HEMOGLOBIN / LEUKOCYTE COUNT / LYMPHOCYTE / MEAN CORPUSCULAR HEMOGLOBIN / MEAN CORPUSCULAR HEMOGLOBIN CONCENTRATION / MEAN CORPUSCULAR VOLUME / MONOCYTE / NEUTROPHIL / NUCLEATED RED BLOOD CELLS / PLATELET COUNT: tissue Blood; for ALANINE AMINOTRANSFERASE / ALBUMIN / ALKALINE PHOSPHATASE / ASPARTATE AMINOTRANSFERASE / BLOOD UREA NITROGEN / CARBON DIOXIDE / CHLORIDE / CHOLESTEROL / CREATINE PHOSPHOKINASE / CREATININE / GLUCOSE / LACTATE DEHYDROGENASE / LIPASE / PHOSPHORUS / POTASSIUM / SODIUM / TOTAL BILIRUBIN / TOTAL PROTEIN / URIC ACID: tissue Plasma
[1] = 0 mg/kg, 72 h, dose level Control, time 3 day
[2] = 0 mg/kg, 120 h, dose level Control, time 5 day
[3] = […], 72 h, dose 0.24 mg/Kg, dose level Low, time 3 day
[4] = […], 72 h, dose 2.5 mg/Kg, dose level High, time 3 day

## CC[C@@]1(O)C(=O)OCc2c1cc1n(c2=O)Cc2cc3ccccc3nc2-1 [CAMPTOTHECIN]
[1]
  ABSOLUTE BASOPHIL: 0 CELLS/uL
  ABSOLUTE EOSINOPHIL: 21.67 CELLS/uL
  ABSOLUTE LYMPHOCYTE: 10193.67 CELLS/uL
  ABSOLUTE MONOCYTE: 165.83 CELLS/uL
  ABSOLUTE SEGMENTED NEUTROPHIL: 702.17 CELLS/uL
  BASOPHIL: 0%
  EOSINOPHIL: 0.17%
  ERYTHROCYTE COUNT: 5.39 x10E6/uL
  HEMATOCRIT: 34.62%
  HEMOGLOBIN: 13.8 G/DL
  LEUKOCYTE COUNT: 11.08 x10E3/uL
  LYMPHOCYTE: 91.83%
  MEAN CORPUSCULAR HEMOGLOBIN: 25.68 pg
  MEAN CORPUSCULAR HEMOGLOBIN CONCENTRATION: 39.9 G/DL
  MEAN CORPUSCULAR VOLUME: 64.37 fL
  MONOCYTE: 1.5%
  NEUTROPHIL: 6.5%
  NUCLEATED RED BLOOD CELLS: 0 /100WBC
  PLATELET COUNT: 1202.83 x10E3/uL
  ALANINE AMINOTRANSFERASE: 55.5 u/L
  ALBUMIN: 4.22 G/DL
  ALKALINE PHOSPHATASE: 406.83 u/L
  ASPARTATE AMINOTRANSFERASE: 101.5 u/L
  BLOOD UREA NITROGEN: 13.5 mg/dL
  CARBON DIOXIDE: 30.33 mmol/L
  CHLORIDE: 102.17 MEQ/L
  CHOLESTEROL: 63.67 mg/dL
  CREATINE PHOSPHOKINASE: 732.67 u/L
  CREATININE: 0.2 mg/dL
  GLUCOSE: 157 mg/dL
  LACTATE DEHYDROGENASE: 442.5 u/L
  LIPASE: 10.83 u/L
  PHOSPHORUS: 12.68 mg/dL
  POTASSIUM: 5.67 MEQ/L
  SODIUM: 144 MEQ/L
  TOTAL BILIRUBIN: 0.15 mg/dL
  TOTAL PROTEIN: 6.02 G/DL
  URIC ACID: 1.55 mg/dL
[2]
  ABSOLUTE BASOPHIL: 0 CELLS/uL
  ABSOLUTE EOSINOPHIL: 17 CELLS/uL
  ABSOLUTE LYMPHOCYTE: 11849.17 CELLS/uL
  ABSOLUTE MONOCYTE: 69.83 CELLS/uL
  ABSOLUTE SEGMENTED NEUTROPHIL: 730.67 CELLS/uL
  BASOPHIL: 0%
  EOSINOPHIL: 0.17%
  ERYTHROCYTE COUNT: 5.93 x10E6/uL
  HEMATOCRIT: 37.42%
  HEMOGLOBIN: 14.4 G/DL
  LEUKOCYTE COUNT: 12.67 x10E3/uL
  LYMPHOCYTE: 93.17%
  MEAN CORPUSCULAR HEMOGLOBIN: 24.32 pg
  MEAN CORPUSCULAR HEMOGLOBIN CONCENTRATION: 38.5 G/DL
  MEAN CORPUSCULAR VOLUME: 63.08 fL
  MONOCYTE: 0.5%
  NEUTROPHIL: 6.17%
  NUCLEATED RED BLOOD CELLS: 0 /100WBC
  PLATELET COUNT: 1170.5 x10E3/uL
  ALANINE AMINOTRANSFERASE: 51 u/L
  ALBUMIN: 4.12 G/DL
  ALKALINE PHOSPHATASE: 392.67 u/L
  ASPARTATE AMINOTRANSFERASE: 81.67 u/L
  BLOOD UREA NITROGEN: 16.17 mg/dL
  CARBON DIOXIDE: 30.67 mmol/L
  CHLORIDE: 100.5 MEQ/L
  CHOLESTEROL: 64.83 mg/dL
  CREATINE PHOSPHOKINASE: 242.67 u/L
  CREATININE: 0.2 mg/dL
  GLUCOSE: 186.83 mg/dL
  LACTATE DEHYDROGENASE: 188 u/L
  LIPASE: 10.83 u/L
  PHOSPHORUS: 11.67 mg/dL
  POTASSIUM: 5.51 MEQ/L
  SODIUM: 142.55 MEQ/L
  TOTAL BILIRUBIN: 0.22 mg/dL
  TOTAL PROTEIN: 6.08 G/DL
  URIC ACID: 1.85 mg/dL
[3]
  ABSOLUTE BASOPHIL: 0 CELLS/uL
  ABSOLUTE EOSINOPHIL: 41.67 CELLS/uL
  ABSOLUTE LYMPHOCYTE: 12074 CELLS/uL
  ABSOLUTE MONOCYTE: 83.33 CELLS/uL
  ABSOLUTE SEGMENTED NEUTROPHIL: 834.33 CELLS/uL
  BASOPHIL: 0%
  EOSINOPHIL: 0.33%
  ERYTHROCYTE COUNT: 5.45 x10E6/uL
  HEMATOCRIT: 34.8%
  HEMOGLOBIN: 13.63 G/DL
  LEUKOCYTE COUNT: 13.03 x10E3/uL
  LYMPHOCYTE: 92.67%
  MEAN CORPUSCULAR HEMOGLOBIN: 25.13 pg
  MEAN CORPUSCULAR HEMOGLOBIN CONCENTRATION: 39.23 G/DL
  MEAN CORPUSCULAR VOLUME: 63.97 fL
  MONOCYTE: 0.67%
  NEUTROPHIL: 6.33%
  NUCLEATED RED BLOOD CELLS: 0 /100WBC
  PLATELET COUNT: 732.67 x10E3/uL
[4]
  ABSOLUTE BASOPHIL: 0 CELLS/uL
  ABSOLUTE EOSINOPHIL: 0 CELLS/uL
  ABSOLUTE LYMPHOCYTE: 9985 CELLS/uL
  ABSOLUTE MONOCYTE: 46 CELLS/uL
  ABSOLUTE SEGMENTED NEUTROPHIL: 602.33 CELLS/uL
  BASOPHIL: 0%
  EOSINOPHIL: 0%
  ERYTHROCYTE COUNT: 5.09 x10E6/uL
  HEMATOCRIT: 32.33%
  HEMOGLOBIN: 13.2 G/DL
  LEUKOCYTE COUNT: 10.63 x10E3/uL
  LYMPHOCYTE: 94%
  MEAN CORPUSCULAR HEMOGLOBIN: 25.93 pg
  MEAN CORPUSCULAR HEMOGLOBIN CONCENTRATION: 40.87 G/DL
  MEAN CORPUSCULAR VOLUME: 63.53 fL
  MONOCYTE: 0.33%
  NEUTROPHIL: 5.67%
  NUCLEATED RED BLOOD CELLS: 0 /100WBC
  PLATELET COUNT: 1247.67 x10E3/uL
